Laboratory results taken from US20070134261A1, “Effectors of innate immunity” (priority 2001, published 2007).
Converted amounts (≈) assume the structure as drawn. Starred links: 1 amine or outer side, 2 acyl side, 3 side chain; linkers in the order of their positions; H or OH if unused. Positions of bridges follow the written chain, without caps; N, C: chain ends. Non-standard residues stand in square brackets, D forms with d. Residues, ends and D or L forms follow the SMILES beside them. Chains are numbered I, II in the order given. Actinocin(9to1) = Cc1c2oc3c(C)ccc(C(=O)[*:1])c3nc-2c(C(=O)[*:2])c(N)c1=O; NMeV = CN[C@H](C(=O)O)C(C)C; Sar = CNCC(=O)O

Experiments:
[1] = system: THP-1 cells; assay: Quantitative real-time PCR (qPCR) in THP-1 cells; assay type: cell-based, human; settings: 4 μg/ml, within 1 hour of treatment (data not shown)
Description: Quantitative real-time PCR (qPCR)—Differential gene expression identified by microarray analysis was validated using quantitative real-time PCR (qPCR) using SuperScriptTM III Platinum® Two-Step qRT-PCR Kit with SYBR® Green (Invitrogen Life Technologies), as per the manufacturer's instructions, in the ABI PRISMS® 7000 sequence detection system (Applied Biosystems, Foster city, Calif., USA). Briefly, 1 μg of total RNA was reverse transcribed in a 20 μl reaction volume for 50 min at 42° C., the reaction was terminated by incubating for 5 min at 85° C. and then digested for 30 min at 37° C. with RNAse H. The PCR reaction was carried out in a 12.5 μl reaction volume containing 2.5 μl of 1/10 diluted cDNA template. A melting curve was performed to ensure that any product detected was specific to the desired amplicon. Fold changes were calculated after normalization to endogenous GAPDH and using the comparative Ct method (Pfaffl MW. A new mathematical model for relative quantification in real-time RT-PCR. Nucleic Acids Res 2001; 29:No. 9 e45).

[2] = system: Human monocytic cells, THP-1; assay: LPS-induced TNFα secretion by THP-1 cells (ELISA); settings: 4 μg/ml; LPS-stimulated THP-1 cells
[3] = system: human bronchial epithelial cells (HBE); assay: LDH release assay (Cytotoxicity Detection Kit); assay type: cell-based; settings: 100 μg/ml, 24 hours; no peptide control 1.0 ± 0.05
Method in brief: (§1)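 Both read-outs were colorimetric at OD490 on HBE cells after 24 h with 100 μg of each peptide. The WST-1 assay reported viability through mitochondrial dehydrogenase cleavage of the tetrazolium salt. The LDH assay tested the removed supernatant for enzyme leaked from membrane-damaged cells.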

[4] = system: HBE cells; assay: WST-1 assay (cell viability); assay type: cell-based, human
Method in brief: as §1

[5] = assay type: cell-based; settings: overnight, 96-well plate
[6] = system: HBE cells; settings: 50 μg/ml, 4 h
[7] = system: THP-1 cells
[8] = system: RAW 264.7 mouse macrophage cells; assay type: cell-based; settings: 20 μg/ml; 1 μg/ml AraLAM
Description: The ability of compounds to neutralize the stimulation of immune cells by both Gram-negative and Gram-positive bacterial products was tested. Bacterial products stimulate cells of the immune system to produce inflammatory cytokines and when unchecked this can lead to sepsis. Initial experiments utilized the murine macrophage cell line RAW 264.7, which was obtained from the American Type Culture Collection, (Manassas, Va.), the human epithelial cell line, A549, and primary macrophages derived from the bone marrow of BALB/c mice (Charles River Laboratories, Wilmington, Mass.). The cells from mouse bone marrow were cultured in 150-mm plates in Dulbecco's modified Eagle medium (DMEM; Life Technologies, Burlington, ON) supplemented with 20% FBS (Sigma Chemical Co, St. Louis, Mo.) and 20% L cell-conditioned medium as a source of M-CSF. Once macrophages were 60-80% confluent, they were deprived of L cell-conditioned medium for 14-16 h to render the cells quiescent and then were subjected to treatments with 100 ng/ml LPS or 100 ng/ml LPS+20 μg/ml peptide for 24 hours. The release of cytokines into the culture supernatant was determined by ELISA (R&D Systems, Minneapolis, Minn.). […] The samples were centrifuged for 5 min at 2000×g, the plasma was collected and then stored at −20° C. until being analyzed for IL-8 by ELISA (R&D Systems). […] Survival was monitored for 48 hours post injection.

[9] = system: NFκB subunits; assay: Translocation of NFκB subunits in nuclear extracts of THP-1 cells (Western blot, ELISA); assay type: cell-based, human; settings: 60 min

Compound | inhibition of LPS-induced transcription of TNFα and TNFAIP2 genes [1] | reduction of TNFα release [2] | LDH Release (OD490 nm) [3] | OD490 nm (WST-1 cell viability) [4] | MIC, C. rhod. ([5]; Citobacter rhodensis) | MIC, EHEC ([5]; Enterohaemorrhagic E. coli) | MIC, E. coli ([5]; Escherichia coli) | MIC, P. aerug. ([5]; Pseudomonas aeruginosa) | MIC, S. typhim. ([5]; Salmonella enteritidis ssp. typhimurium) | Ratio of SEQ ID NO: 1-treated:control, L41559 6-pyruvoyl-tetrahydropterin synthase/dimerization cofactor of hepatocyte nuclear factor 1 alpha [6] | Ratio of SEQ ID NO: 1-treated:control, NM_000120 epoxide hydrolase 1, microsomal [6] | cytotoxicity [7] | Inhibition of TNF-α [8] | inhibition of LPS-induced p50 translocation [9] | inhibition of LPS-induced p65 translocation [9]
Cc1c2oc3c(C)ccc(C(=O)N[C@@H]4C(=O)N[C@H](C(C)C)C(=O)N5CCC[C@H]5C(=O)N(C)CC(=O)N(C)[C@@H](C(C)C)C(=O)O[C@@H]4C)c3nc-2c(C(=O)N[C@@H]2C(=O)N[C@H](C(C)C)C(=O)N3CCC[C@H]3C(=O)N(C)CC(=O)N(C)[C@@H](C(C)C)C(=O)O[C@@H]2C)c(N)c1=O [Actinomycin D] (I: T[dV]P[Sar][NMeV] / II: T[dV]P[Sar][NMeV]; ester I:1-I:C, II:1-II:C; linker I:N-II:N via Actinocin(9to1)) | more than 96% | 97.6% | – | – | – | – | – | – | – | – | – | – | – | – | –
CC[C@H](C)[C@H](NC(=O)[C@H](CCCCN)NC(=O)[C@H](CCC(=O)O)NC(=O)[C@H](CCCCN)NC(=O)[C@H](CO)NC(=O)[C@H](CCCCN)NC(=O)[C@H](CCCNC(=N)N)NC(=O)[C@H](Cc1ccccc1)NC(=O)[C@H](Cc1ccccc1)NC(=O)[C@H](CC(=O)O)NC(=O)CNC(=O)[C@H](CC(C)C)NC(=O)[C@@H](N)CC(C)C)C(=O)NCC(=O)N[C@@H](CCCCN)C(=O)N[C@@H](CCC(=O)O)C(=O)N[C@@H](Cc1ccccc1)C(=O)N[C@@H](CCCCN)C(=O)N[C@@H](CCCNC(=N)N)C(=O)N[C@H](C(=O)N[C@H](C(=O)N[C@@H](CCC(N)=O)C(=O)N[C@@H](CCCNC(=N)N)C(=O)N[C@H](C(=O)N[C@@H](CCCCN)C(=O)N[C@@H](CC(=O)O)C(=O)N[C@@H](Cc1ccccc1)C(=O)N[C@@H](CC(C)C)C(=O)N[C@@H](CCCNC(=N)N)C(=O)N[C@@H](CC(N)=O)C(=O)N[C@@H](CC(C)C)C(=O)N[C@H](C(=O)N1CCC[C@H]1C(=O)N[C@@H](CCCNC(=N)N)C(=O)N[C@H](C(=O)N[C@@H](CCC(=O)O)C(=O)N[C@@H](CO)C(=O)O)[C@@H](C)O)C(C)C)[C@@H](C)CC)C(C)C)[C@@H](C)CC [SEQ ID NO: 1, reference compound] | – | – | 1.18 ± 0.05 OD490 nm | 1.62 ± 0.34 OD490 nm | 8 µg/mL (≈ 1.78 µM) | 4 µg/mL (≈ 0.89 µM) | 32 µg/mL (≈ 7.12 µM) | 96 µg/mL (≈ 21.4 µM) | 64 µg/mL (≈ 14.2 µM) | 0.20 | 0.22 | not cytotoxic | – | – | –
Polymyxin B | – | – | 1.21 ± 0.03 OD490 nm | 1.30 ± 0.13 OD490 nm | – | – | – | – | – | – | – | – | 15 ± 2% | 82±5% | 80±90%
